# Measurements reported in publication PMC3462610 (Biochemical Journal, 2011).
# Where no end group is shown, it is not given here.
# Experiments:
# endogenous JNK2 = experiment: Co-immunoprecipitation of endogenous WDR62 with JNK2, HEK-293T; format: binding, human; details: anti-WDR62 3G8
# Endogenous MKK7 = experiment: Co-immunoprecipitation of endogenous WDR62 with MKK7, HEK-293T; format: binding, human; details: anti-WDR62 3G8
# JNK1 = experiment: Co-immunoprecipitation of endogenous WDR62 with JNK1, HEK-293T; format: binding, human; details: authors attribute it to lower JNK1 expression level
# JNK3 = experiment: GST pull-down with WDR62 1018-C–GST constructs; format: binding, human; details: HEK-293T
# EGFP–JNK1 = experiment: Immunofluorescence, recruitment of EGFP–JNK1 to cellular granules in HeLa cells; format: cell-based, human; details: 24 h after transfection, confocal microscopy
# activated His–JNK2–FLAG = activated His–JNK2–FLAG (Homo sapiens, UniProt P45984); experiment: biochemical
# MKK7α and MKK7β = details: cited from earlier work
# Sequence of activated His–JNK2–FLAG (P45984 whole entry): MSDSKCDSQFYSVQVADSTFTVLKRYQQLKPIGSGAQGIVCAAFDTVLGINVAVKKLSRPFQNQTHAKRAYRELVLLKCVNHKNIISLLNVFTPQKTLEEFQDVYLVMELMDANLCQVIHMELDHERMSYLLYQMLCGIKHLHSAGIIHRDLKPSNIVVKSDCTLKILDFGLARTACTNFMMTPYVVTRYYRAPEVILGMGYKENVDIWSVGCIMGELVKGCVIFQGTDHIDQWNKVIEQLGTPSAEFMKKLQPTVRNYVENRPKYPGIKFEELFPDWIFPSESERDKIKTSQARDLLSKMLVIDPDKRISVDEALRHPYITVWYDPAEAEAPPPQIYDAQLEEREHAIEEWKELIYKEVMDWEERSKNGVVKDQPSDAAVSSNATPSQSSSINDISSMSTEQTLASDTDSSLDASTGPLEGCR
molecule,measurement,setting,value
"WDR62: full-length WDR62 (endogenous, or Myc-tagged wild-type); JNK scaffold protein",co-precipitation of endogenous JNK2,endogenous JNK2,presence of endogenous JNK2
same,co-precipitation of endogenous MKK7,Endogenous MKK7,also detected
same,interaction with JNK1,JNK1,lack of interaction
same,association with JNK3,JNK3,strongest association with the neuronal-enriched JNK3 isoform
same,recruitment of EGFP–JNK1 to cellular granules,EGFP–JNK1,efficiently recruited to these granules
GRKKRRQRRRPPNHEARANLRLTLSSACDGLL [WDR62 peptide],IC50,activated His–JNK2–FLAG,5 µM
"JIP1 scaffold protein: JIP1 (JNK-interacting protein 1) scaffold protein (protein, UniProt Q9UQF2 1-711, looked up) C-Jun-amino-terminal …: MAERESGGLGGGAASPPAASPFLGLHIASPPNFRLTHDISLEEFEDEDLSEITDECGISLQCKDTLSLRPPRAGLLSAGGGGAGSRLQAEMLQMDLIDATGDTPGAEDDEEDDDEERAARRPGAGPPKAESGQEPASRGQGQSQGQSQGPGSGDTYRPKRPTTLNLFPQVPRSQDTLNNNSLGKKHSWQDRVSRSSSPLKTGEQTPPHEHICLSDELPPQSGPAPTTDRGTSTDSPCRRSTATQMAPPGGPPAAPPGGRGHSHRDRIHYQADVRLEATEEIYLTPVQRPPDAAEPTSAFLPPTESRMSVSSDPDPAAYPSTAGRPHPSISEEEEGFDCLSSPERAEPPGGGWRGSLGEPPPPPRASLSSDTSALSYDSVKYTLVVDEHAQLELVSLRPCFGDYSDESDSATVYDNCASVSSPYESAIGEEYEEAPRPQPPACLSEDSTPDEPDVHFSKKFLNVFMSGRSRSSSAESFGLFSCIINGEEQEQTHRAIFRFVPRHEDELELEVDDPLLVELQAEDYWYEAYNMRTGARGVFPAYYAIEVTKEPEHMAALAKNSDWVDQFRVKFLGSVQVPYHKGNDVLCAAMQKIATTRRLTVHFNPPSSCVLEISVRGVKIGVKADDSQEAKGNKCSHFFQLKNISFCGYHPKNNKYFGFITKHPADHRFACHVFVSEDSTKALAESVGRAFQQFYKQFVEYTCPTEDIYLE",interaction with MKK7α and MKK7β,MKK7α and MKK7β,interacts with both MKK7α and MKK7β
